Laboratory results published in patent publication US20190352341A1, “MODIFIED PEPTIDES AND THEIR USE FOR TREATING SYSTEMIC LUPUS ERYTHEMATOSUS” (IMMUPHARMA FRANCE SA, priority 2018, published 2019).
Numbered stars: 1 amine (or outer) side, 2 acyl side, 3 side chain; on linkers, the order of the positions; unused ones are H or OH. Square brackets hold non-standard residues; d marks the D form. Peptide text beside a SMILES is read from it. ξ: configuration not given here. X1 = CSCC[C@H](NC(=N)[C@H](Cc1c[nH]cn1)N[*:1])C(=O)[*:2]; pS = N[C@@H](COP(=O)(O)O)C(=O)O; Ile(3ξ) = CCC(C)[C@H](N)C(=O)O

Legend:
[1] = Stability of the peptides at 37° C. (HPLC peak area); type: physicochemical; settings: for 95% of stability (predicted): time to 95% from linear equation; for Stability (%) Linear equation: slope: y = stability %, x = days; for Stability (%): 10% mannitol
Protocol: The stability of the peptide SEQ ID NO: 1 in which the serine at position 10 is phosphorylated and the methionine at position 4 is oxydized (P140(MO)), and the peptide SEQ ID NO: 1 in which the serine at position 10 is phosphorylated (P140) was measured at 37° C., in a solution of 10% (v/v) mannitol. For each peptide, 3 concentrations have been tested: 200, 100 and 50 μg/mL.
At the indicated time, the integrity of P140 and P140(MO) peptides was measured in saline by high-performance liquid chromatography from the area of the peak corresponding to the intact peptide.
Stability is measured by using the HPLC peak surface.

[2] = system: peripheral T cells from lupus patients; settings: cited from earlier work
CD4+ T splenocytes = test: Collagen-induced arthritis (CIA) mouse model, ex vivo T splenocyte proliferation; type: in vivo; settings: DBA/1 CIA mice, peptide i.v. day −1, +7, +14, +20; 100 μg CII/mL, CFSE assay by FACS
Protocol: Next, P140 peptide was administered in a model of mice that develop a RA-like disease (we anticipated to use this mouse model as a negative control of MRL/lpr-lupus prone mice). This model, called collagen-induced arthritis (CIA) mouse model, is the most commonly studied autoimmune model of RA. In this model, autoimmune arthritis is induced by immunizing DBA/1 mice with an emulsion of complete Freund's adjuvant (CFA) and type II collagen (CII), and typically, the first signs of arthritis appear in 21-28 days after immunization (Brand et al., 2007). CIA shares several pathological features with human RA, and CII is a major protein in cartilage, the target tissue of RA. Pathological features include synovial hyperplasia, mononuclear cell infiltration, and cartilage degradation. Susceptibility in these mice is linked to the expression of specific MHC class II genes, DBA/1 have H-2^q haplotype.
P140 peptide was thus administrated intravenously to DBA/1 mice at day −1, +7, +14 and +20 in a setting close to the one we used in MRL/lpr mice ([…]). CII in CFA was injected at days+1 and +21 (200 μg, intradermal route). Mouse weight and their clinical score were followed using very classical procedure. Biological parameters were also evaluated (i.e. T cell response, antibody response, joint histology, etc).

MRL/lpr mice = test: MRL/lpr mouse model of Gougerot-Sjögren syndrome (salivary glands); type: in vivo
Protocol: In this study MRL/lpr female 11-12 week old mice were used with 10 mice per group for statistical analysis. Each mouse received a single injection by retro-orbital, 100 μg of peptide P140 of 100 μl in […] NaCl. After 5 days, the mouse blood was collected in heparinized tube and salivary glands (GSS) were removed and placed in Eppendorf tubes containing PBS pH 7.4.
The number of foci site (FS) is determined for each mouse. A focus is defined as an aggregate of 50 or more cells.
The level of inflammation SG is determined semiquantitatively by a scoring system (0-3 scale): Grade 0: no inflammatory cells; Grade 1: few perivascular inflammatory and periductal Infiltrates (<100 cells); Grade 2: moderate number of perivascular inflammatory and periductal Infiltrates (100-500 cells); Grade 3: extensive inflammation with inflammatory foci broad (>500 cells).
Cells of total salivary glands stained with fluorescently were labeled antibodies for 40 min at 4° C., Were Collected data by FACSCalibur.
The weight of salivary glands Was Measured after-excision. DNase I (1 mg/ml) and collagenase D (50 μg/ml) were used to digest the salivary glands. Total cell counts were evaluated after the digestion.
The MRL/lpr mice (10 mice per arm) were injected with peptide P140 (100 μl/mouse iv). Five days after injection the mice were sacrificed and SGs collected as indicated above. The tissue was cut by the cryostat sections of 5 μm. The sections were labeled with hematoxylin/eosin staining is the method most frequently used in tissue histology. The level of inflammation and the number of FS were determined (FIGS. 19 and 20). Representative pictures are from sample control group 4 and group Treated sample (Bar 500 μm).

[3] = 5 days after one single iv injection, flow cytometry

In the case of CCC(C)[C@H](NC(=O)[C@H](Cc1ccccc1)NC(=O)[C@H](C)NC(=O)[C@H](Cc1ccc(O)cc1)NC(=O)CNC(=O)[C@H](CCCNC(=N)N)NC(=O)[C@@H]1CCCN1C(=O)[C@H](CCCCN)NC(=O)CNC(=O)[C@H](COP(=O)(O)O)NC(=O)[C@H](CCCNC(=N)N)NC(=O)[C@H](CCCCN)NC(=O)[C@H](CO)NC(=O)[C@H](Cc1ccc(O)cc1)NC(=O)[C@@H](NC(=O)[C@H](CCSC)NC(=N)[C@H](Cc1c[nH]cn1)NC(=O)[C@@H](NC(=O)[C@@H](N)CCCNC(=N)N)C(C)CC)C(C)C)C(=O)N[C@@H](CCC(=O)O)C(=O)N[C@@H](Cc1ccc(O)cc1)C(=O)O (some centres unmarked) [Compound P140] (H-R[Ile(3ξ)][X1]VYSKR[pS]GKPRGYAF[Ile(3ξ)]EY-OH), the “Stability (%) Linear equation: intercept” value ([1]; 50 μg/mL) is reported as 98.299, the “95% of stability (predicted)” value ([1]; 50 μg/mL) is reported as 1 months and the “Stability (%) Linear equation: slope” value ([1]; 50 μg/mL) is reported as “y = −0.099x +”. For the same compound, the “Stability (%) Linear equation: intercept” value ([1]; 100 μg/mL) was 99.25, the “95% of stability (predicted)” value ([1]; 100 μg/mL) was 2 months and the “Stability (%) Linear equation: slope” value ([1]; 100 μg/mL) was “y = −0.0612x +”. For the same compound, the “Stability (%) Linear equation: intercept” value ([1]; 200 μg/mL) was 99.535, the “95% of stability (predicted)” value ([1]; 200 μg/mL) was 6 months and the “Stability (%) Linear equation: slope” value ([1]; 200 μg/mL) was “y = −0.0238x +”. The “Stability (%)” value ([1]; 50 μg/mL, day 0) was 100%, the “Stability (%)” value ([1]; 50 μg/mL, day 20) was 95.5% and the “Stability (%)” value ([1]; 50 μg/mL, day 40) was 93.2%. The “Stability (%)” value ([1]; 50 μg/mL, day 60) was 91.5%, the “Stability (%)” value ([1]; 50 μg/mL, day 80) was 90.3% and the “Stability (%)” value ([1]; 50 μg/mL, day 100) was 89.6%. The “Stability (%)” value ([1]; 100 μg/mL, day 0) was 100%, the “Stability (%)” value ([1]; 100 μg/mL, day 20) was 97.5% and the “Stability (%)” value ([1]; 100 μg/mL, day 40) was 96.2%. The “Stability (%)” value ([1]; 100 μg/mL, day 60) was 95.5%, the “Stability (%)” value ([1]; 100 μg/mL, day 80) was 94.5% and the “Stability (%)” value ([1]; 100 μg/mL, day 100) was 93.4%. For the same compound, the “Stability (%)” value ([1]; 200 μg/mL, day 0) was 100%, the “Stability (%)” value ([1]; 200 μg/mL, day 20) was 98.7% and the “Stability (%)” value ([1]; 200 μg/mL, day 40) was 98.5%. For the same compound, the “Stability (%)” value ([1]; 200 μg/mL, day 60) was 97.9%, the “Stability (%)” value ([1]; 200 μg/mL, day 80) was 97.6% and the “Stability (%)” value ([1]; 200 μg/mL, day 100) was 97.4%. The “Proliferation of peripheral T cells from lupus patients” value ([2]; ex vivo (Monneaux et al., 2005)) was “does not induce proliferation”, the “Secretion of regulatory cytokine IL-10 in cell cultures” value ([2]; ex vivo, T cells from lupus patients (Monneaux et al., 2005)) was “high levels” and the “CD4+ T splenocytes proliferation ex vivo in the presence of CII” value (CD4+ T splenocytes) was “strongly diminished”. For the same compound, the “Lymphocytic infiltration in the SGs” value (MRL/lpr mice; 5 days after one single administration, hematoxylin/eosin) was “significantly reduced”, the “Weight of salivary glands (SGs)” value (MRL/lpr mice; 5 days after one single iv injection) was “no statistically significant effect” and the “CD4+ T cells in SGs” value (MRL/lpr mice; [3]) was “decreased”. The “Total number of B cells in SGs” value (MRL/lpr mice; [3]) was “no statistically significant effect” and the “Total number of cells present in the SGs” value (MRL/lpr mice; [3]) was “no apparent effect”.
